Assay results as given in patent US9717746B2 (priority 2014, dated 2017).

Experiments:
hippocampal slices [1] = tested on: hippocampal slices
hippocampal slices [2] = tested on: hippocampal slices; remark: listed apart in the source

| SMILES | effect of antidote per se on PS (without neurotoxicant) (hippocampal slices [1]) | neurotoxicity of the neurotoxicant (PS area) (hippocampal slices [2]) |
| --- | --- | --- |
| CCCCCCCCCCCCCCCCCCOCC(COP(=O)([O-])OCC[N+](C)(C)C)OC (racemic) [edelfosine, 1-O-octadecyl-2-O-methyl-rac-glycero-3-phosphocholine] | innocuous |  |
| CC[C@@H]1C(=O)OC[C@@H]1Cc1cncn1C [pilocarpine] |  | neurotoxicity of pilocarpine increases at high potassium concentration |
